# Where two headings read alike, the source gives them in different places.
# Key:
# [1] = target: human CDK9/CyclinT kinase complex (Homo sapiens (Human), UniProt P50750); assay: In Vitro CDK9/CyclinT Assay (IMAP fluorescent polarization); format: biochemical
# Experimental: In Vitro CDK9/CyclinT Assay
# The activity of the compounds described in the present invention can be determined by measuring the phosphorylation of a fluorescently-labeled peptide by human CDK9/CyclinT kinase complex by fluorescent polarization using a commercially available IMAP Screening Express Assay Kit (Molecular devices).
# Test compounds were diluted in 100% DMSO to 5 mM stock concentration, then further dilutions were made in H2O or 100% DMSO to desirable concentrations. Each reaction consisted of 5 nM enzyme: CDK9/CyclinT (Proqinase cat#0371-0345-1), 400 nM TAMRA-Rbtide (synthetic 15-mer peptide derived from human retinoblastoma tumor suppressor protein labeled with TAMRA dye, Genecust Europe), 12 μM ATP (=Kmapp, Sigma-Aldrich) and kinase buffer: 20 mM MOPS pH 7 (Sigma-Aldrich), 1 mM DTT (Sigma-Aldrich), 10 mM MgCl2 (Sigma-Aldrich), 0.01% Tween 20 (Sigma-Aldrich).
# For each reaction, 4 or 6 μl containing TAMRA-Rbtide, ATP and kianse buffer were combined with 2 μl diluted compound in H2O or 0.028 μl compound in 100% DMSO. The kinase reaction was started by the addition of 2 μl diluted enzyme. The reaction was allowed to run for 1 hour at room temperature. The reaction was stopped by adding 15 μl IMAP beads (1:400 beads in progressive (100% buffer A) 1× buffer).
# Primary T cells = assay: Cytotoxicity, viability by flow cytometry; format: cell-based
# Experimental: Primary T cells are cultured and treated with different concentrations of the test compound. Viability is analysed by measuring through flow cytometry based techniques the percentage of viable cells, compared to untreated control=100%).
# [2] = Table 4, toxic dose 50%, viable cells
# Sequence of human CDK9/CyclinT kinase complex (P50750 whole entry): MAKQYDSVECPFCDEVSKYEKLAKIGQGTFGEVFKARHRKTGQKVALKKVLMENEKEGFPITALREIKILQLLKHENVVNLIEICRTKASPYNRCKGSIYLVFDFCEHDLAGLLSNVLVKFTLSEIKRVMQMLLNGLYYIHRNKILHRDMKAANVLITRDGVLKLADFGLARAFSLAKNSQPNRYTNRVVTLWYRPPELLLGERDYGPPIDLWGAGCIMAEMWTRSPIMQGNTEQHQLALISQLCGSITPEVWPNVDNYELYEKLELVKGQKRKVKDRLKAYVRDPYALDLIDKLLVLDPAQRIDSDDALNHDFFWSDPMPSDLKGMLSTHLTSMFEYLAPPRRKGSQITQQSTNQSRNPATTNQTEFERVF
# Sequence of human CDK9/CyclinT kinase complex (O60563 whole entry partner): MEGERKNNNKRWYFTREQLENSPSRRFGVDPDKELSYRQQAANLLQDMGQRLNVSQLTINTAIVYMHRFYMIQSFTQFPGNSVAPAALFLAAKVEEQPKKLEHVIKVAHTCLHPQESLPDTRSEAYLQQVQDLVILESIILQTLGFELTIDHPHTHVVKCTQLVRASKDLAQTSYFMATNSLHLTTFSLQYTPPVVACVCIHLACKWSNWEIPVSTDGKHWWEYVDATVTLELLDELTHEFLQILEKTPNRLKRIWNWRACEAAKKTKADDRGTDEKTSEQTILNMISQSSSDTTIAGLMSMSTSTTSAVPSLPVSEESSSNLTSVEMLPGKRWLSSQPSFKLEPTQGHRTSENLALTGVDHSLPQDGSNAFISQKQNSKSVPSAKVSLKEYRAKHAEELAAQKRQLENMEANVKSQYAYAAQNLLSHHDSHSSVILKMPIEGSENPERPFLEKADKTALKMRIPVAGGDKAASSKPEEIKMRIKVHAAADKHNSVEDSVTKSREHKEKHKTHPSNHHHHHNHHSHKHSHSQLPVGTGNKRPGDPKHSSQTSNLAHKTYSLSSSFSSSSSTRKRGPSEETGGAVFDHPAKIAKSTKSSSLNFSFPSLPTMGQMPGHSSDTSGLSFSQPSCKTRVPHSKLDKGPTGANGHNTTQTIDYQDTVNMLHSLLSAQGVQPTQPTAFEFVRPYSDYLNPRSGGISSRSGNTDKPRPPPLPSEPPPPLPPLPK
SMILES,IC50 [1] [nM],TD50 (Primary T cells) [µM],IC50 ([1]; Table 1) [nM],TD50 (Primary T cells; [2]) [µM]
"COc1ccc(Nc2cc(-c3ccccc3OC)ncn2)cc1CNCc1ccccc1 [Example 1, N-(3-((Benzylamino)methyl)-4-methoxyphenyl)-6-(2-methoxyphenyl)pyrimidin-4-amine]",< 1000,3.5,,
"COc1ccccc1-c1cc(Nc2ccc(N3CCN(C)CC3)c(Cn3cnc4ccccc43)c2)ncn1 [Example 2, N-(3-((1H-Benzo[d]imidazol-1-yl)methyl)-4-(4-methylpiperazin-1-yl)phenyl)-6-(2-methoxyphenyl)pyrimidin-4-amine]",,0.4,< 100,
"COc1ccc(Nc2cc(-c3ccccc3OC)ncn2)cc1CNS(C)(=O)=O [Example 4, N-(2-Methoxy-5-(6-(2-methoxyphenyl)pyrimidin-4-ylamino)benzyl)methanesulfonamide]",,2.1,< 100,
"COc1ccccc1-c1cc(Nc2ccc(Cl)c(CO)c2)ncn1 [Example 6, (2-Chloro-5-(6-(2-methoxyphenyl)pyrimidin-4-ylamino)phenyl)methanol]",,>0.5,< 1000,
"COc1ccccc1-c1cc(Nc2ccc(Cl)c(C(=O)NN)c2)ncn1 [Example 7, 2-Chloro-5-(6-(2-methoxyphenyl)pyrimidin-4-ylamino)benzohydrazide]",,>5,< 100,
"COc1ccc(Nc2cc(-c3ccccc3OC)ncn2)cc1OCCN1CCOCC1 [Example 8, N-(4-Methoxy-3-(2-morpholinoethoxy)phenyl)-6-(2-methoxyphenyl)pyrimidin-4-amine]",,,< 1000,>1.5
"COc1ccc(Nc2cc(-c3ccccc3OC)ncn2)cc1NS(C)(=O)=O [Example 9, N-(2-Methoxy-5-(6-(2-methoxyphenyl)pyrimidin-4-ylamino)phenyl)methanesulfonamide]",,>1.5,,
"CCOC(=O)c1cc(Nc2cc(-c3ccccc3OC)ncn2)ccc1Cl [Example 14, Ethyl 2-chloro-5-(6-(2-methoxyphenyl)pyrimidin-4-ylamino)benzoate]",< 1000,>0.5,,
"COc1ccccc1-c1cc(Nc2ccc(Cl)c(C(=O)N3CCCC3)c2)ncn1 [Example 15, (2-Chloro-5-(6-(2-methoxyphenyl)pyrimidin-4-ylamino)phenyl)(pyrrolidin-1-yl)methanone]",< 1000,>0.5,,
COc1ccccc1-c1cc(Nc2ccc(N3CCN(C)CC3)c(CO)c2)ncn1 [Example 17],,>0.5,,
"CCOC(=O)c1cc(Nc2cc(-c3ccccc3OC)ncn2)ccc1N1CCOCC1 [Example 18, Ethyl 5-(6-(2-methoxyphenyl)pyrimidin-4-ylamino)-2-morpholinobenzoate]",,>0.5,< 1000,
"COc1ccccc1-c1cc(Nc2ccc(N3CCOCC3)c(CO)c2)ncn1 [Example 19, (5-(6-(2-Methoxyphenyl)pyrimidin-4-ylamino)-2-morpholinophenyl)methanol]",,>0.5,< 1000,
"COc1ccccc1-c1cc(Nc2ccc(Cl)c(CN3C(=O)c4ccccc4C3=O)c2)ncn1 [Example 20, 2-(2-Chloro-5-(6-(2-methoxyphenyl)pyrimidin-4-ylamino)benzyl)isoindoline-1,3-dione]",< 10000,,,>0.5
"COC(=O)c1cc(Nc2cc(-c3ccccc3OC)ncn2)ccc1O [Example 21, Methyl 2-hydroxy-5-(6-(2-methoxyphenyl)pyrimidin-4-ylamino)benzoate]",,>0.5,< 1000,
"COc1ccc(Nc2cc(-c3ccccc3OC)ncn2)cc1F [Example 22, N-(3-Fluoro-4-methoxyphenyl)-6-(2-methoxyphenyl)pyrimidin-4-amine]",,>0.5,< 1000,
"COc1ccc(Nc2cc(-c3ccccc3OC)ncn2)cc1C(=O)NCc1ccccc1 [Example 23, N-Benzyl-2-methoxy-5-(6-(2-methoxyphenyl)pyrimidin-4-ylamino)benzamide]",,>0.5,< 1000,
"COc1ccc(Nc2cc(-c3ccccc3OC)ncn2)cc1CO [Example 24, (2-Methoxy-5-(6-(2-methoxyphenyl)pyrimidin-4-ylamino)phenyl)methanol]",,>0.5,< 1000,
"CNC(=O)c1cc(Nc2cc(-c3ccccc3OC)ncn2)ccc1OC [Example 25, 2-Methoxy-5-(6-(2-methoxyphenyl)pyrimidin-4-ylamino)-N-methylbenzamide]",,>0.5,< 1000,
"COc1ccc(Nc2cc(-c3ccccc3OC)ncn2)cc1NC(=O)OCC(Cl)(Cl)Cl [Example 27, 2,2,2-Trichloroethyl 2-methoxy-5-(6-(2-methoxyphenyl)pyrimidin-4-ylamino)phenylcarbamate]",< 10000,,,>0.5

SMILES,IC50 [1] [nM],TD50 (Primary T cells) [µM],IC50 ([1]; Table 1) [nM],TD50 (Primary T cells; [2]) [µM]
"COc1ccc(Nc2cc(-c3ccccc3OC)ncn2)cc1C(=O)NCc1ccncc1 [Example 28, 2-Methoxy-5-(6-(2-methoxyphenyl)pyrimidin-4-ylamino)-N-(pyridin-4-ylmethyl)benzamide]",< 1000,>0.5,,
"COc1ccc(Nc2cc(-c3ccccc3OC)ncn2)cc1C=O [Example 29, 2-Methoxy-5-(6-(2-methoxyphenyl)pyrimidin-4-ylamino)benzaldehyde]",,>0.5,< 1000,
"COC(=O)c1cc(Nc2cc(-c3ccccc3OC)ncn2)ccc1OC [Example 30, Methyl 2-methoxy-5-(6-(2-methoxyphenyl)pyrimidin-4-ylamino)benzoate]",,>0.5,< 100,
"COc1ccc(Nc2cc(-c3ccccc3OC)ncn2)cc1C(=O)NN [Example 33, 2-Methoxy-5-(6-(2-methoxyphenyl)pyrimidin-4-ylamino)benzohydrazide]",,>5,< 100,
"COc1ccc(Nc2cc(-c3ccccc3OC)ncn2)cc1CNc1ccccc1 [Example 34, N-(4-Methoxy-3-((phenylamino)methyl)phenyl)-6-(2-methoxyphenyl)pyrimidin-4-amine]",< 10000,>5,,
"COc1ccc(Nc2cc(-c3ccccc3OC)ncn2)cc1CN(C)C [Example 35, N-(3-((Dimethylamino)methyl)-4-methoxyphenyl)-6-(2-methoxyphenyl)pyrimidin-4-amine]",,3,,
"COc1ccc(Nc2cc(-c3ccccc3OC)ncn2)cc1OCc1ccccc1 [Example 36, N-(3-(Benzyloxy)-4-methoxyphenyl)-6-(2-methoxyphenyl)pyrimidin-4-amine]",< 10000,,,>5
"COc1ccccc1-c1cc(Nc2ccc(N3CCN(C)CC3)c(S(N)(=O)=O)c2)ncn1 [Example 38, 5-(6-(2-Methoxyphenyl)pyrimidin-4-ylamino)-2-(4-methylpiperazin-1-yl)benzenesulfonamide]",,<1.5,< 100,
"CCOc1ccc(Nc2cc(-c3ccccc3OC)ncn2)cc1Cn1cnc2ccccc21 [Example 39, N-(3-((1H-Benzo[d]imidazol-1-yl)methyl)-4-ethoxyphenyl)-6-(2-methoxyphenyl)pyrimidin-4-amine]",,0.6,< 100,
"COc1cc(F)ccc1-c1cc(Nc2ccc(N(C)C)c(C(N)=O)c2)ncn1 [Example 113, 2-Dimethylamino-5-[6-(4-fluoro-2-methoxy-phenyl)-pyrimidin-4-ylamino]-benzamide]",,,< 100,
"COc1ccc(Nc2cc(-c3ccccc3OC)ncn2)cc1Br [Example 115, (3-Bromo-4-methoxy-phenyl)-[6-(2-methoxy-phenyl)-pyrimidin-4-yl]-amine]",< 10000,,,
"COc1ccc(Nc2cc(-c3ccccc3OC)ncn2)cc1C1=CCNCC1 [Example 116, [6-(2-Methoxy-phenyl)-pyrimidin-4-yl]-[4-methoxy-3-(1,2,3,6-tetrahydro-pyridin-4-yl)-phenyl]-amine]",,,< 100,
"COc1ccc(Nc2cc(-c3ccc(F)cc3OC)ncn2)cc1NC(N)=O [Example 119, {5-[6-(4-Fluoro-2-methoxy-phenyl)-pyrimidin-4-ylamino]-2-methoxy-phenyl}-urea]",,,< 1000,
"COc1cc(Nc2cc(-c3ccccc3OC)ncn2)ccc1OCc1ccccc1 [Example 120, (4-Benzyloxy-3-methoxy-phenyl)-[6-(2-methoxy-phenyl)-pyrimidin-4-yl]-amine]",< 10000,,,
"COc1cc(Nc2cc(-c3ccccc3OC)ncn2)ccc1O [Example 121, 2-Methoxy-4-[6-(2-methoxy-phenyl)-pyrimidin-4-ylamino]-phenol]",,,< 100,
"CCOc1ccccc1-c1cc(Nc2ccc(OC)c(O)c2)ncn1 [Example 124, 5-[6-(2-Ethoxy-phenyl)-pyrimidin-4-ylamino]-2-methoxy-phenol]",,,< 1000,
"COC(=O)Oc1cc(Nc2cc(-c3ccc(F)cc3OC)ncn2)ccc1OC [Example 125, Carbonic acid 5-[6-(4-fluoro-2-methoxy-phenyl)-pyrimidin-4-ylamino]-2-methoxy-phenyl ester methyl ester]",,,< 1000,
"COc1cc(Nc2cc(-c3ccccc3OC)ncn2)ccc1C(=O)NCCO [Example 135, N-(2-Hydroxy-ethyl)-2-methoxy-4-[6-(2-methoxy-phenyl)-pyrimidin-4-ylamino]-benzamide]",,,< 1000,

# Reference: patent publication US9617225B2 (VIROSTATICS SRL, priority 2012, dated 2017)
